From patent US7045532B2 (Millennium Pharmaceuticals, Inc., priority 1999, dated 2006)

Columns and labels:
ACE-2 [1] = biological target: ACE-2 (Rattus norvegicus, UniProt Q5EGZ1); experiment: ACE-2 Competitive Substrate Assay, rat ACE-2; type: biochemical; settings: Ki class; compounds tested in 5% DMSO, 12 concentrations
Carboxypeptidase A = biological target: T1, Carboxypeptidase A (Bos taurus, UniProt P00730); experiment: Carboxypeptidase A activity assay; type: biochemical; settings: Ki class; compounds tested in 5% DMSO, 12 concentrations
T1 sequence (P00730 111-419): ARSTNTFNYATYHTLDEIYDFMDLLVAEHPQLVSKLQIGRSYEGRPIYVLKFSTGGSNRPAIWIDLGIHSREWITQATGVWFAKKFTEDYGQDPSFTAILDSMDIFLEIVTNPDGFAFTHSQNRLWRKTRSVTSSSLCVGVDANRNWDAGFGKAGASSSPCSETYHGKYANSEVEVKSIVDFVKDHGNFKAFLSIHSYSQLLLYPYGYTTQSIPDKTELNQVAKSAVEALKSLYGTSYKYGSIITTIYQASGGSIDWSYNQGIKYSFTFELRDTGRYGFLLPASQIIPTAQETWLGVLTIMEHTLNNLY
Summary of the method: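 Ki obtained by correcting apparent Ki for substrate, Ki=Kiapp/(1+[S]/Km), from 12-concentration series. Enzyme activity read by absorbance at 328 nm with 5% DMSO present, EDTA stop.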

ACE (Sigma, A2580) = biological target: T2, ACE (Sigma, A2580) (Sus scrofa, UniProt F1RRW5); experiment: ACE enzymatic activity assay; type: biochemical, porcine; settings: Ki class; compounds tested in 5% DMSO, 12 concentrations
T2 construct: ACE from porcine kidney; purchased Sigma A2580; host or cells: porcine kidney
T2 sequence (F1RRW5 34-1309): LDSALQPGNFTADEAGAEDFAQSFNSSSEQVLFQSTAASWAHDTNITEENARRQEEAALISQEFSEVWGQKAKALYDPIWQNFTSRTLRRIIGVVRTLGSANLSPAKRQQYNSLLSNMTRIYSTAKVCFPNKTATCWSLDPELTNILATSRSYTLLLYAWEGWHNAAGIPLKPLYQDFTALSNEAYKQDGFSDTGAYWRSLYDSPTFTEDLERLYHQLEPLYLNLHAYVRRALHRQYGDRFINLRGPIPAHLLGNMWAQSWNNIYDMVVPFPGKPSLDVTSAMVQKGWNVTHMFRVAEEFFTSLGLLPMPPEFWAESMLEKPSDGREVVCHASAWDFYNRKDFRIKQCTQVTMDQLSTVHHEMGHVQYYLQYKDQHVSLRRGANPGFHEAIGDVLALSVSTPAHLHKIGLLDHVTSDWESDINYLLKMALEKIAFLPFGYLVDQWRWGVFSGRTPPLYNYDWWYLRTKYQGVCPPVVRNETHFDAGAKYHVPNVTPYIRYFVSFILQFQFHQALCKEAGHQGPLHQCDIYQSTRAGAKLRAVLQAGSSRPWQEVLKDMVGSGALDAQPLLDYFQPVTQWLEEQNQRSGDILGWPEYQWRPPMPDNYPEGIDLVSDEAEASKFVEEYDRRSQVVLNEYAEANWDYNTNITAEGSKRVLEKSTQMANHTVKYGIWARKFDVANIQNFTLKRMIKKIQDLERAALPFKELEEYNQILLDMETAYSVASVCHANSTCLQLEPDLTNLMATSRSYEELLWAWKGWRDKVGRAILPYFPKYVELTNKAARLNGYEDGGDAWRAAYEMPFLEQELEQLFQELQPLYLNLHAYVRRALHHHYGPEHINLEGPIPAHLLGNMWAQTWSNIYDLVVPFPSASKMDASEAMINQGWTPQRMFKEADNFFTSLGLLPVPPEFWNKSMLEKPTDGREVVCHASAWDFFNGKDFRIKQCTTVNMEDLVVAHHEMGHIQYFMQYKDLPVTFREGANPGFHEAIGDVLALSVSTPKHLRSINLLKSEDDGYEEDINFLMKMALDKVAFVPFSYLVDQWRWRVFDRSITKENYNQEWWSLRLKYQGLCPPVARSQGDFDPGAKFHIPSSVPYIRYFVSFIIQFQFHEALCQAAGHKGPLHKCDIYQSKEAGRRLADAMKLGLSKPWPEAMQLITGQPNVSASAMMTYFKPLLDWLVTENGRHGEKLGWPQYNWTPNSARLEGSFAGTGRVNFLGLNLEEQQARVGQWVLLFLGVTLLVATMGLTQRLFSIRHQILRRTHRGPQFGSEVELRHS
Summary of the method: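 Fluorogenic substrate cleavage by 1 nM ACE, read at 320/405 nm after EDTA stop at ~30 min. Reactions at 25 °C, pH 7.5, in HEPES/NaCl/Brij-35 buffer; compounds tested at 12 concentrations in 5% DMSO.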

ACE-2 [2] = biological target: T3, ACE-2 (Homo sapiens, UniProt Q9BYF1); experiment: ACE-2 Competitive Substrate Assay (ACS Assay); type: biochemical; settings: Ki class; compounds tested in 5% DMSO, 12 concentrations; read-out: Human ACE-2 Activity
T3 construct: a stop codon inserted after the serine immediately preceding the transmembrane domain; made in house; host or cells: CHO K1 cells (transient transfection, purified from conditioned medium)
T3 sequence (Q9BYF1 18-740 limits assumed): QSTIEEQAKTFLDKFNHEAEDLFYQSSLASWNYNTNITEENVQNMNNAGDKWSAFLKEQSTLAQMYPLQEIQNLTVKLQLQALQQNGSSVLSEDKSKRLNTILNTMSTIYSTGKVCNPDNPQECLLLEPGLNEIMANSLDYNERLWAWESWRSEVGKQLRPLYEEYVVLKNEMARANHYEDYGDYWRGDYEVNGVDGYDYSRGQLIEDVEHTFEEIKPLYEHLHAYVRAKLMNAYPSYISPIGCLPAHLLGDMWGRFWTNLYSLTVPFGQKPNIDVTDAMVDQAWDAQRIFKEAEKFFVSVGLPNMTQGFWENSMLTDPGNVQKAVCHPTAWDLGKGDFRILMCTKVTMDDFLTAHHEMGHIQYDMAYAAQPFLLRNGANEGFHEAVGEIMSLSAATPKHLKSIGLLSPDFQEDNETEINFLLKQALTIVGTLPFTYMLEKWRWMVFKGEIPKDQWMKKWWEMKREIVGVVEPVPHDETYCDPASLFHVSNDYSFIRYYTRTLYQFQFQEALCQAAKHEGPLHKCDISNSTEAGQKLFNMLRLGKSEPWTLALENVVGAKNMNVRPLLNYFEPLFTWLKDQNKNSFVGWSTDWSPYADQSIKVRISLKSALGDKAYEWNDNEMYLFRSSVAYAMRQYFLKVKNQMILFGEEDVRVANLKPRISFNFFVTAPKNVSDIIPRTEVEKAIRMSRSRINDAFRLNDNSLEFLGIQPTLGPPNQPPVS
Description: An example of such an assay is the ACE-2 Competitive Substrate Assay (ACS Assay).
ACE-2 enzymatic activity was assayed in microtitre plates by the following procedure. The ACE-2 assay buffer used contained 50 mM MES (Boehringer-Mannheim), 300 mM NaCl (Sigma) and 0.01% Brij-35 (Pierce Chemical Co.) at pH 6.5.
Reactions were mixed and incubated at 25° C.
The activity of the test compounds was investigated using the procedure outlined above. The compounds were tested in 5% DMSO. Enzyme activity was measured at 12 compound concentrations.
The following reagents, equipment, stock solutions, and working solutions are used for the ACE-2 assay.
The assay buffer is prepared using 50 mM Mes, 300 mM NaCl, and 0.01% Brij 35, pH 6.5. These components are measured and made up to approximately 800 ml with nanopure water. Using 1M NaOH the pH is adjusted to 6.5 and the solution is then made up to the final volume of 1 L using nanopure water. The buffer is filtered through a 0.45 um disposable filter unit and stored at +4° C. until needed.
This working solution maintains activity for up to 8 hours at room temperature.
The working ACE-2 solution (for using with Mca-APK(Dnp)) is prepared by thawing ACE-2 and diluting it to a concentration of 1 nM using the assay buffer at room temperature.
These solutions are stable up to 8 hours but can not be frozen-thawed for reuse.
Multiple well plates are used for this experiment.
Approximately 360 compounds are tested per plate. Five μl per of each test compound is added in each well. […] Immediately thereafter, 20 μl of Mca-XXX(Dnp) working solution is added per well and mixed for 30 seconds. The reaction is allowed to progress for approximately 60 minutes.
After approximately 60 minutes, 20 μl of 50 mM EDTA is added per well (reaction is linear up to 90 minutes) and mixed for 30 seconds. At this point the fluorescent signal is stable up to 20 hours at room temperature.

Chain of ACE-2 (Rattus norvegicus, UniProt Q5EGZ1) (Q5EGZ1 18-805): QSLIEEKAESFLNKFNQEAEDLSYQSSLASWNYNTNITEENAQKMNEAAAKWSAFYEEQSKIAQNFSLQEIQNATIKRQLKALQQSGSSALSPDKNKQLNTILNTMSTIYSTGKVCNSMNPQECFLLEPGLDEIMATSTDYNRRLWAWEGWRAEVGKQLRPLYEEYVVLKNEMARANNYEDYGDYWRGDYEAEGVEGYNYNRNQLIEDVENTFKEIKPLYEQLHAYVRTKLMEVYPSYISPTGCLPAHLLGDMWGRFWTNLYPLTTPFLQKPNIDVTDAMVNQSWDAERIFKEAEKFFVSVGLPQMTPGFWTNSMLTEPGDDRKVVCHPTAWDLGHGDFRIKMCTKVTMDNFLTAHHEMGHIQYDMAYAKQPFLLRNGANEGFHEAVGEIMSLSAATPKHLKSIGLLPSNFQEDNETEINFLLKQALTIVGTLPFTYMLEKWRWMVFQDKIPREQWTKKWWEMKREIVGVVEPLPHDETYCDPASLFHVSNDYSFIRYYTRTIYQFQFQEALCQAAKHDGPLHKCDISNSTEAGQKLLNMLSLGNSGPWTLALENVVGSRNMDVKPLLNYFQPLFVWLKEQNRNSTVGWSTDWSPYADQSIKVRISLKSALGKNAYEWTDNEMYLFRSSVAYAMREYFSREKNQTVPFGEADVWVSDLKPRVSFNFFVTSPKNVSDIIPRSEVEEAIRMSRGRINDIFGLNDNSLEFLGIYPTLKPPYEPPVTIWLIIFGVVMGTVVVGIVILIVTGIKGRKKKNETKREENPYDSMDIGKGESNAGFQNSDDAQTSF

CCCC(N[C@H](CCc1ccccc1)C(=O)O)C(=O)O (stereo in doubt) [BA, 2-(1-Carboxy-3-phenyl-propylamino)-pentanoicacid]
Ki (ACE-2 [1]): > 0.5 µM | Ki (Carboxypeptidase A): > 50 µM | Ki (ACE (Sigma, A2580)): > 50 µM | Ki (ACE-2 [2]): > 0.5 µM

CCC(C)C(N[C@H](Cc1c[nH]cn1)C(=O)O)C(=O)O (stereo in doubt) [BE, 2-[1-Carboxy-2-(1H-imidazol-4-yl)-ethylamino]-3-methyl-pentanoic acid]
Ki (ACE-2 [1]): > 0.5 µM | Ki (Carboxypeptidase A): > 50 µM | Ki (ACE (Sigma, A2580)): 10 to 50 µM | Ki (ACE-2 [2]): > 0.5 µM

CC(C)CC(N[C@H](Cc1ccccn1)C(=O)O)C(=O)O (stereo in doubt) [BZ, 2-(1-Carboxy-2-pyridin-2-yl-ethylamino)-4-methyl-pentanoic acid]
Ki (ACE-2 [1]): > 0.5 µM | Ki (Carboxypeptidase A): > 50 µM | Ki (ACE (Sigma, A2580)): > 50 µM | Ki (ACE-2 [2]): > 0.5 µM

CC(C)CC(N[C@H](Cc1cccs1)C(=O)O)C(=O)O (stereo in doubt) [CP, 2-(1-Carboxy-2-thiophen-2-yl-ethylamino)-4-methyl-pentanoic acid]
Ki (ACE-2 [1]): > 0.5 µM | Ki (Carboxypeptidase A): 10 to 50 µM | Ki (ACE (Sigma, A2580)): > 50 µM | Ki (ACE-2 [2]): > 0.5 µM

CC(C)CC(N[C@H](Cc1cn(Cc2ccccc2)cn1)C(=O)O)C(=O)O (stereo in doubt) [CW, 2-[2-(1-Benzyl-1H-imidazol-4-yl)-1-carboxy-ethylamino]-4-methyl-pentanoic acid]
Ki (ACE-2 [1]): > 0.5 µM | Ki (Carboxypeptidase A): > 50 µM | Ki (ACE (Sigma, A2580)): > 50 µM | Ki (ACE-2 [2]): > 0.5 µM

CC(C)CC(N[C@@H](Cc1cn(-c2ccc([N+](=O)[O-])cc2[N+](=O)[O-])cn1)C(=O)O)C(=O)O (stereo in doubt) [EG, 2-[1-Carboxy-2-[1-(2,4-dinitro-phenyl)-1H-imidazol-4-yl]-ethylamino)4-methyl-pentanoic acid]
Ki (ACE-2 [1]): > 0.5 µM | Ki (Carboxypeptidase A): > 50 µM | Ki (ACE (Sigma, A2580)): 10 to 50 µM | Ki (ACE-2 [2]): > 0.5 µM

CC(C)CC(N[C@H](CN(C)Cc1ccccc1)C(=O)O)C(=O)O (stereo in doubt) [FU, 2-[2-(Benzyl-methyl-amino)-1-carboxy-ethylamino]-4-methyl-pentanoic acid]
Ki (ACE-2 [1]): > 0.5 µM | Ki (Carboxypeptidase A): > 50 µM | Ki (ACE (Sigma, A2580)): > 50 µM | Ki (ACE-2 [2]): > 0.5 µM

CC(C)C[C@H](NC(CN(C)c1ccccc1)C(=O)O)C(=O)O (some centres unmarked) [AP, 2-[1-Carboxy-2-(methyl-phenyl-amino)-ethylamino]-4-methyl-pentanoic acid]
Ki (ACE-2 [1]): 0.1 to 0.5 µM | Ki (Carboxypeptidase A): 10 to 50 µM | Ki (ACE (Sigma, A2580)): > 50 µM | Ki (ACE-2 [2]): > 0.5 µM

CC(C)[C@H](NC(CCc1ccccc1)C(=O)O)C(=O)O (some centres unmarked) [AS, 2-(1-Carboxy-3-phenyl-propylamino)-3-methyl-butync acid]
Ki (ACE-2 [1]): > 0.5 µM | Ki (Carboxypeptidase A): > 50 µM | Ki (ACE (Sigma, A2580)): > 50 µM | Ki (ACE-2 [2]): > 0.5 µM

O=C(O)C[C@H](NC(CCc1ccccc1)C(=O)O)C(=O)O (some centres unmarked) [AZ, 2-(1-Carboxy-3-phenyl-propylamino)-succinicacid]
Ki (ACE-2 [1]): > 0.5 µM | Ki (Carboxypeptidase A): > 50 µM | Ki (ACE (Sigma, A2580)): > 50 µM | Ki (ACE-2 [2]): > 0.5 µM

CC(C)CC(N[C@H](Cc1c[nH]cn1)C(=O)O)C(=O)O (some centres unmarked) [BB, 2-[1-Carboxy-2-(1H-imidazol-4-yl)-ethylamino]4-methyl-pentanoic acid]
Ki (ACE-2 [1]): > 0.5 µM | Ki (Carboxypeptidase A): > 50 µM | Ki (ACE (Sigma, A2580)): < 10 µM | Ki (ACE-2 [2]): > 0.5 µM
